Data as given in US6399310B1, “Methods for improving the therapeutic response of humans having major depression and carrying the gene for apolipoprotein E4” (Akzo Nobel N.V., priority 2001, dated 2002).

How the values were obtained:
Type in all cases: in vivo, human
[1] = tested on: patients 65 years of age and older with major depression; experiment: Geriatric Depression Scale (GDS) in 8-week double-blind comparison
Method: Geriatric Depression Scale (GDS) (Yesavage, J. A. et al., J. Psychiatr. Res. 17:37-49, 1983), a self-rating scale developed specifically for rating depression in the elderly. In the GDS, a lower rating signifies less depression. GDS 50% responders are defined as subjects with a decrease on a post-baseline assessment of at least 50% as compared to baseline.
(§1) All statistical analyses were performed using the SAS software package (available from SAS Institute). For clinical measures of depression (HDRS-21, HDRS-17, GDS, and CGI), analyses of covariance were performed with baseline values as the covariate, and apoE genotype (ε4 allele carrier vs. non-carrier) and medication (mirtazapine, paroxetine) as the predictors. For remitter and responder analyses of clinical measures of depression, Cochran-Mantel-Haenszel statistics were used. For comparison of medication and genotype groups on baseline demographic measures, two-way analyses of variance were used.

[2] = tested on: patients 65 years of age and older with major depression; experiment: Hamilton Depression Rating Scale (HDRS-17 / HDRS-21) in 8-week double-blind comparison of paroxetine and mirtazapine
Excerpt: Hamilton Depression Rating Scale (HDRS; 17 and 21 item versions of a structured interview) (Hamilton, M., J. Neurol. Neurosurg. Psychiatr. 23:56-62, 1960; Hamilton, M., Br. J. Soc. Clin. Psychol. 6:278-296, 1967). […] In other words, a lower rating in the HDRS scale signifies less depression. In contrast, HDRS remitters, which are those patients showing the least depression, are defined as subjects who have an HDRS-17 score of less than 7 at a post-baseline visit.
as §1

[3] = tested on: patients 65 years of age and older with major depression; experiment: Clinical Global Impression Scale (CGI) in 8-week double-blind comparison; conditions: day 14
Excerpt: Clinical Global Impression Scale (CGI) (Guy, W., ECDEU Assessment Manual for Psychopharmacology, DHEW Publication No. (ADM) 76-338, rev. 1976). The CGI scale is a global 7-point rating of the severity of the illness taking into account the preceding week (CGI-Severity) and a global 7-point rating of the clinical status of the subject since baseline (CGI-Change). A responder is defined as being “Much Improved” or “Very Much Improved” —having a CGI score of at least 2 according to CGI-Change. Thus, a higher CGI-Severity score corresponds to more severe depression whereas a higher CGI-Change score corresponds to lessened depression, or an improvement in alleviating the symptoms of depression.
as §1

[4] = day 14, Caucasian subjects, p=0.006

SMILES: CN1CCN2c3ncccc3Cc3ccccc3C2C1 (stereo not shown) [mirtazapine, 1,2,3,4,10,14b-hexahydro-2-methylpyrazino[2,1-a]pyrido[2,3-c]benzazepine]
- GDS scores, ε4 carriers compared with noncarriers ([1]; day 14, Caucasian subjects): significantly lower
- GDS scores, effect of ε4 allele ([1]; day 14, full cohort): large decrease in GDS scores
- HDRS-17 scores, mirtazapine-treated compared with paroxetine-treated patients ([2]; day 7, full cohort): significantly greater improvement
- HDRS scores, ε4 carriers compared with noncarriers ([2]; day 14, Caucasian subjects): greater improvement
- mean HDRS-17 scores, mirtazapine compared with paroxetine [2, 4]: significantly lower
- mean HDRS-21 scores, mirtazapine compared with paroxetine [2, 4]: significantly lower
- HDRS-17 scores, mirtazapine-treated compared with paroxetine-treated patients ([2]; day 14, full cohort): Significantly greater improvement
- HDRS-21 scores, mirtazapine-treated compared with paroxetine-treated patients ([2]; day 14, full cohort): Significantly greater improvement
- HDRS-17 50% responders, ε4 carriers compared with non-ε4 carriers ([2]; day 14, full cohort, p=0.049): significantly more
- CGI scores, ε4 carriers compared with noncarriers ([3]; Caucasian subjects): significantly better
- CGI scores, mirtazapine treated compared with paroxetine treated subjects ([3]; Caucasian subjects, p=0.037): significantly better
- CGI scores, mirtazapine-treated compared with paroxetine-treated patients ([3]; full cohort): Significantly greater improvement

SMILES: Fc1ccc([C@@H]2CCNC[C@H]2COc2ccc3c(c2)OCO3)cc1 [paroxetine]
- GDS scores, effect of ε4 allele ([1]; day 14, full cohort): no significant difference
- 50% reduction in GDS score, ε4 carriers compared with noncarriers ([1]; day 28, full cohort): no effect of apoE genotype
- HDRS scores, ε4 carriers compared with noncarriers ([2]; day 14, Caucasian subjects): lees improvement
- CGI scores, ε4 carriers compared with noncarriers ([3]; Caucasian subjects): no differences
